{"source": "patent US20220000811A1", "about": "“COMPOSITION FOR PROMOTING HAIR GROWTH COMPRISING A GUANINE DERIVATIVE” (KOREA RESEARCH INSTITUTE OF BIOSCIENCE AND BIOTECHNOLOGY, priority 2019, published 2022)", "assay_type_in_all_cases": "in vivo, mouse", "key": {"[1]": {"tested_on": "C57BL/6 mice", "assay": "Hair regeneration model, darkness of dorsal skin and hair growth", "description": "During the hair telogen phase, the hair on the dorsal skin of 7-week-old C57BL/6 mice (Dae Han BioLink, Chungbuk, Republic of Korea) was depilated using an animal clipper and wax (Veet, Oxy Reckitt Benckiser, Seoul, Republic of Korea). From the next day, 200 μL of placebo (control), 1% IM, 1% minoxidil, or 1% metformin was applied daily to the depilated area using a sterile cotton swab. Images of each animal were captured daily, and the degree of darkness of the color on dorsal skin was quantified in the same area (1.6 cm×3 cm) using the Image J program. The mice were sacrificed, and skin tissues on days 0, 7, 14, and 20 were obtained. Half of the tissues were used for RNA isolation, and the other half were fixed with 4% paraformaldehyde overnight for histochemical analysis. It was confirmed whether the IM compound can promote hair growth without showing toxicity or other side effects through mouse experiments. In 7-week-old C57BL/6 mice, the telogen phase was motivated by hair removal, and various concentrations of IM were applied topically to the dorsal skin of the mice daily."}, "[2]": {"tested_on": "K15, β-catenin, Ki67, Shh, PDK, PDH", "assay": "Histochemical (immunostaining) analysis of skin markers", "description": "During the hair telogen phase, the hair on the dorsal skin of 7-week-old C57BL/6 mice (Dae Han BioLink, Chungbuk, Republic of Korea) was depilated using an animal clipper and wax (Veet, Oxy Reckitt Benckiser, Seoul, Republic of Korea). From the next day, 200 μL of placebo (control), 1% IM, 1% minoxidil, or 1% metformin was applied daily to the depilated area using a sterile cotton swab. Images of each animal were captured daily, and the degree of darkness of the color on dorsal skin was quantified in the same area (1.6 cm×3 cm) using the Image J program. The mice were sacrificed, and skin tissues on days 0, 7, 14, and 20 were obtained. Half of the tissues were used for RNA isolation, and the other half were fixed with 4% paraformaldehyde overnight for histochemical analysis. The tissues fixed in Example 1.1. were immersed in 30% sucrose, and then embedded in an OCT compound (Sakura Finetek USA Inc, Torrance, Calif., USA). Frozen fragments were obtained using a cryostat sectioning device (Leica, Wetzlar, Germany) and stained using hematoxylin (Sigma) and eosin (Sigma) (H&E), or each of the antibodies shown in Table 1 below. Immunohistochemical analysis was performed, and fluorescence images were taken with an Olympus microscope (Olympus)"}, "[3]": {"tested_on": "K15/β-catenin, Ki67/Shh, K15/PDK, Ki67/PDH populations", "assay": "FACS analysis of single skin cells", "description": "During the hair telogen phase, the hair on the dorsal skin of 7-week-old C57BL/6 mice (Dae Han BioLink, Chungbuk, Republic of Korea) was depilated using an animal clipper and wax (Veet, Oxy Reckitt Benckiser, Seoul, Republic of Korea). From the next day, 200 μL of placebo (control), 1% IM, 1% minoxidil, or 1% metformin was applied daily to the depilated area using a sterile cotton swab. Images of each animal were captured daily, and the degree of darkness of the color on dorsal skin was quantified in the same area (1.6 cm×3 cm) using the Image J program. The mice were sacrificed, and skin tissues on days 0, 7, 14, and 20 were obtained. Half of the tissues were used for RNA isolation, and the other half were fixed with 4% paraformaldehyde overnight for histochemical analysis. After the mice were perfused with PBS to remove blood, the skin tissue was harvested and cut into small pieces. The tissue was digested with trypsin (Thermo Fisher Scientific) at 37° C. for 150 minutes, then filtered through a 75 μm nylon mesh, followed by filtering through a 30 μm mesh (BD Biosciences). Single cells were fixed, permeabilized, and blocked according to the immunostaining protocol. The cells were stained with specific antibodies (Table 1 above) and analyzed with BD Accuri™ C6 (BD Biosciences)"}}, "data": [{"smiles": "Cc1ccccc1CCNC(=N)NC(=N)N", "note": "[IM176OUT05, N-1-(2-methyl)phenethylbiguanide]", "values": [{"measurement": "black pigmentation and hair growth", "setting": "[1]; 1% topical daily on dorsal skin, day 9", "value": "remarkably observed"}, {"measurement": "hair growth, male and female mice", "setting": "[1]; 1% topical daily, comparison with minoxidil", "value": "promoted hair growth in both male and female mice"}, {"measurement": "skin color compared to control or minoxidil-treated mice", "setting": "[1]; 1% topical daily, day 8", "value": "clearly darkened"}, {"measurement": "hair growth", "setting": "[1]; 1% topical daily, day 10", "value": "markedly promoted"}, {"measurement": "hair growth in female mice", "setting": "[1]; 1% topical daily, female mice", "value": "strong promoting effect"}, {"measurement": "effect compared to minoxidil, independent experiment", "setting": "[1]; female mice", "value": "excellent effect as compared to minoxidil"}, {"measurement": "Ki67-positive proliferating cells", "setting": "[2]; day 7", "value": "identified"}, {"measurement": "PDH expression in Ki67-positive proliferating cells", "setting": "[2]; day 7", "value": "clearly confirmed"}, {"measurement": "PDK expression in K15-positive stem cells", "setting": "[2]; day 7", "value": "detected"}, {"measurement": "expression of δ-catenin", "setting": "[2]; day 7", "value": "increased"}, {"measurement": "keratin 15 (K15) expression in follicle protrusion region compared to control or minoxidil", "setting": "[2]; day 7", "value": "strongly expressed"}, {"measurement": "K15/PDH and Ki67/PDK expressions", "setting": "[2]; day 20", "value": "independently detected"}, {"measurement": "Sonic hedgehog (Shh) detection", "setting": "[2]; day 20", "value": "clearly detected"}, {"measurement": "K15+/PDK+ population in single skin cells", "setting": "[3]; day 7, FACS", "value": 5.9, "unit": "%"}, {"measurement": "K15+/β-catenin+ population in single skin cells", "setting": "[3]; day 7, FACS", "value": 11.7, "unit": "%"}, {"measurement": "Ki67+/PDH+ population", "setting": "[3]; day 7, FACS", "value": 13.7, "unit": "%"}, {"measurement": "increase of K15+/β-catenin+ population compared to control", "setting": "[3]; day 7, FACS", "value": 3.7}, {"measurement": "increase of glycolytic stem cell population (K15+/PDK+) compared to control", "setting": "[3]; day 7, FACS", "value": "at least 6.6 times"}, {"measurement": "Ki67+/Shh+ population in single skin cells", "setting": "[3]; day 20, FACS", "value": 36.7, "unit": "%"}, {"measurement": "PDK+ cell population and Ki67+ cell population", "setting": "[3]; day 20, FACS", "value": "increased"}, {"measurement": "increase of Ki67+/Shh+ population compared to control", "setting": "[3]; day 20, FACS", "value": 2.7, "unit": "times"}, {"measurement": "separated populations of PDH+ cells and K15+ cells", "setting": "[3]; day 20, FACS", "value": "increased"}]}]}
